Assay results: PMC7436000, “The Spectrum of Design Solutions for Improving the Activity-Selectivity Product of Peptide Antibiotics against Multidrug-Resistant Bacteria and Prostate Cancer PC-3 Cells” (Molecules, 2020)
Values after ≈ are worked out from the molar mass of the structure shown. Peptide text beside a SMILES is read from it.

Assays:
[1] = tested on: Acinetobacter baumannii (ATCC 19606); assay type: cell-based; details: ATCC 19606
Summary of the method: (§1)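 Broth microdilution against mid-exponential cells at 5 × 10^5 CFU/mL; clinical isolates are multidrug-resistant, tested in Mueller Hinton medium, while E. coli MG1655 was grown in LB. Peptide was serially 2-fold diluted from 64 μM to 0.0625 μM and incubated 18 h to 24 h at 37 °C. MIC = lowest concentration without visible growth.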

[2] = tested on: Pseudomonas aeruginosa (ATCC 27853); assay type: cell-based; details: ATCC 27853
Summary of the method: as §1

[3] = tested on: Staphylococcus aureus (ATCC 29213); assay type: cell-based; details: ATCC 29213
Summary of the method: as §1

[4] = tested on: Escherichia coli (ATCC 25922); assay type: cell-based; details: ATCC 25922
Summary of the method: as §1

Escherichia coli MG1655 = assay type: cell-based; details: MG1655
Summary of the method: as §1

[5] = tested on: Klebsiella pneumoniae (ATCC 13883); assay type: cell-based; details: ATCC 13883
Summary of the method: as §1

[6] = tested on: human primary dermal fibroblasts; assay type: cell-based; details: 24 h
human erythrocytes [7] = test: Hemolysis of human erythrocytes; assay type: cell-based; details: 24 h
A. baum. clin. isolate = assay type: cell-based, Acinetobacter baumannii
Summary of the method: as §1

E. coli clin. isolate = assay type: cell-based, Escherichia coli; details: clin. isolate
Summary of the method: as §1

human erythrocytes [8] = test: Hemolysis of human erythrocytes; assay type: cell-based; details: 1 h
K. pneum. clin. isolate = assay type: cell-based, Klebsiella pneumoniae
Summary of the method: as §1

P. aerug. clin. isolate = assay type: cell-based, Pseudomonas aeruginosa
Summary of the method: as §1

S. aureus clin. isolate = assay type: cell-based, Staphylococcus aureus; details: clin. isolate
Summary of the method: as §1

[9] = tested on: PC-3 prostate cancer cell line; assay type: cell-based, human; details: 24 h

SMILES: CC[C@H](C)[C@H](NC(=O)CN)C(=O)NCC(=O)N[C@@H](CCCCN)C(=O)N[C@@H](Cc1ccccc1)C(=O)N[C@@H](CC(C)C)C(=O)N[C@@H](CCCCN)C(=O)N[C@@H](CCCCN)C(=O)N[C@@H](C)C(=O)N[C@@H](CCCCN)C(=O)N[C@@H](CCCCN)C(=O)N[C@@H](Cc1ccccc1)C(=O)NCC(=O)N[C@@H](CCCCN)C(=O)N[C@@H](C)C(=O)N[C@@H](Cc1ccccc1)C(=O)N[C@H](C(=O)N[C@@H](CC(C)C)C(=O)N[C@H](C(=O)N[C@@H](CC(C)C)C(=O)N[C@@H](CCCCN)C(=O)N[C@@H](CCCCN)C(N)=O)[C@@H](C)CC)C(C)C [PEXA] (H-GIGKFLKKAKKFGKAFVLILKK-NH2)
- MIC (A. baum. ATCC 19606) [1]: 1 to 2 µM
- MIC (P. aerug. ATCC 27853) [2]: 4 µM (≈ 9.85 µg/mL)
- MIC (S. aureus ATCC 29213) [3]: 0.5 µM (≈ 1.23 µg/mL)
- MIC (E. coli ATCC 25922) [4]: 0.5 to 1 µM
- MIC (E. coli MG1655) (Escherichia coli MG1655): 4 µM (≈ 9.85 µg/mL)
- MIC (K. pneum. ATCC 13883) [5]: 2 µM (≈ 4.92 µg/mL)
- IC50 [6]: 12 µM
- HC50 * (extrapolated) (human erythrocytes [7]): 520 * µM
- MIC (A. baum. clin. isolate) (A. baum. clin. isolate): 1 to 2 µM
- MIC (E. coli clin. isolate) (E. coli clin. isolate): 4 µM (≈ 9.85 µg/mL)
- HC10 (human erythrocytes [8]): 1.6 µM
- HC20 (human erythrocytes [8]): 7 µM
- MIC (K. pneum. clin. isolate) (K. pneum. clin. isolate): 4 µM (≈ 9.85 µg/mL)
- MIC (P. aerug. clin. isolate) (P. aerug. clin. isolate): 16 µM (≈ 39.4 µg/mL)
- MIC (S. aureus clin. isolate) (S. aureus clin. isolate): 2 µM (≈ 4.92 µg/mL)
- (TI/ IC50C) vs. MP1 [9]: 18
- IC50 [9]: 4 µM
- TI (HC20/IC20C) [9]: 6.7
- TI (IC50F/IC50C) [9]: 3
- TI/ IC50C [9]: 0.75
